Patent publication US8481592B2, “Uses of sesquiterpene derivatives” (Kwang Dong Pharm Co., Ltd., priority 2008, dated 2013)
Marks after values point to notes of the source that are not given here.

How the values were obtained:
C. elegans = assay: Anti-obesity effect (fat content by Nile red staining) in C. elegans; format: in vivo, Caenorhabditis elegans; set-up: key to Fat content: A low fat content was indicated by +1; a high fat content was assigned with +4; settings: for Fat content: Nile red staining
Procedure: Using a dissecting microscope (×50 magnification), C. elegans at the 4th stage (L4, the imaginal stage) was transferred to 3 ml of a cholesterol-supplemented S-medium (containing NaCl, K2HPO4, KH2PO4, cholesterol, citrate, trace metals, CaCl2 and MgSO4), and 100 μl of E. coli OP50 (OD600=0.2) liquid-cultured overnight before 1 day of experiment was added thereto. The Pterocarpus indicus fraction sample was added to the liquid media containing C. elegans, followed by rotary culture in a dark room at 16° C. and 100 rpm. The water-insoluble sample was dissolved in DMSO and added to the culture media. The final concentration of DMSO was adjusted below 1%. […] 24 hours after the sample was added to C. elegans, 30 μl of a Nile red dye at a concentration of 10 μg/ml was added (final concentration of Nile red was adjusted to 100 ng/ml) to the media, followed by continuous rotary culture for 2 days.
In order to arrest the locomotory movement of C. elegan, 20 μl of 0.3% NaN3 was dropped on a slide glass to which 100 μl of C. elegans cultured in the presence of Nile red for 2 days was added. Under a fluorescence microscope, adipocytes of C. elegans emitting red fluorescence in a dark room were micrographed and compared with the control group to thereby determine the amount of fat. A low fat content was indicated by +1, whereas a high fat content was assigned with +4. Adult (L4 stage) C. elegans immediately prior to egg-laying were used in this Example. Therefore, the eggs were hatched after sample treatment and most of adult C. elegans were killed at 3 day post-treatment. A fat content was examined in C. elegans which had newly hatched and grown.

[1] = Body weight gain and total visceral fat weight in mice fed high fat diet containing sesquiterpene compound; format: in vivo, mouse; settings: HFD with 0.2% compound in diet, C57BL mice, 8 weeks
Description: Obesity-inducible diet used in the present experiment was high fat diet (HFD: 40% fat calorie, 17 g Lard+3% maize oil/100 g diet) developed by the present inventors and the composition of diet containing sesquiterpene compounds was equal to that of HFD but each 8 sesquiterpene compounds with a concentration of 0.2% was included in diet [cedryl acetate-containing diet, (−)-α-cedrene-containing diet, (+)-β-cedrene-containing diet, cedrene epoxide-containing diet, methyl cedryl ether-containing diet, methyl cedryl ketone-containing diet, cedrenol-containing diet and (+)-cedrol-containing diet]. The composition of diet is described in the following Table 5.
6-old-week C57BL/63 male mice were adapted to laboratory environment during one week and divided into HFD control and 8 test groups according to randommized block design. […] Diet was supplied with water at 10-11 o'clock every morning, and intake amount of diet and body weight was measured every day and once of three days, respectively. The body weight was measure at 2 hrs after removing feed bin to block sudden change of body weight according to feed intake, and feed efficiency was calculated by dividing body weight gain by amount of total intake amount of diet during total experimental period which is from initial day supplying experimental diet to sacrificed day. After experimental animals were fasted for above 12 hrs, they were anesthetized with diethylether, and their blood, liver and visceral fat tissues (epididymal fat, perirenal fat, mesenteric fat and abdominal fat) were collected. And then, they were washed with 0.1 M phosphate-buffered saline (pH 7.4), and their weights were measured. Blood taken from abdominal aorta was centrifuged at 1,000×g for 15 min to separate plasma.

[2] = Biochemical index of blood and liver tissue in mice fed high fat diet containing sesquiterpene compound; format: in vivo, mouse
Procedure: The composition of diet is described in the following Table 5. […] After experimental animals were fasted for above 12 hrs, they were anesthetized with diethylether, and their blood, liver and visceral fat tissues (epididymal fat, perirenal fat, mesenteric fat and abdominal fat) were collected. And then, they were washed with 0.1 M phosphate-buffered saline (pH 7.4), and their weights were measured. […] Concentration of total Plasma cholesterol, triglyceride and glucose was measured twice according to commercially available measurement kit (Bio Clinical system), respectively. Insulin concentration was measured by ELISA using mouse insulin kit (Shibayaki, Japan). […] The homogenate was mixed with 5 ml of chloroform:methanol solution (2:1, v/v), and centrifuged at 1,000×g for 10 min to separate lower phase. […] Three ml of chloroform:methanol:0.05% CaCl2 solution (3:48:47, v/v/v) were added to the resulting lower phase, and thoroughly mixed for 1 min. The mixture was centrifuged at 1,000×g for 10 min. The final lower phase was completely dried on nitrogen gas, and the dried lipid was dissolved in 1 ml of methanol to use analysis of lipid component. Triglyceride concentration in lipid extracts from liver tissues was measured according to commercially available measurement kit (Bio Clinical system) equal to that used in analysis of plasma.

[3] = Physical characteristics of the compounds (solubility, stability); settings: easily dissolved in organic solvent having lower polarity than ethanol, but not water
[4] = HFD with compound in diet, 8 weeks, fasted

In the case of `CO[C@]1(C)CC[C@@]23C[C@@H]1C(C)(C)[C@@H]2CC[C@H]3C` [methyl cedryl ether, Methyl cedryl ether], the “inhibitory effect on adipogenesis” value (C. elegans; low concentration of 1 μg/ml) was “notably inhibitory effect on adipogenesis”, the Fat content (C. elegans; sample concentration 1 μg/ml) was “+1” and the Fat content (C. elegans; sample concentration 10 μg/ml) was “+2”. The Fat content (C. elegans; sample concentration 100 μg/ml) was “+2”, the Body weight gain [1] was 9.31 ± 0.91 g/8 weeks and the “total visceral fat weight” value ([1]; epididymal, perirenal, mesenteric and abdominal fat) was 50.8 ± 6.12 mg/g body weight. The “Liver Triglyceride” value ([2]; HFD with compound in diet, 8 weeks) was 24.4 ± 1.37 µmol/g, the “IRI (insulin resistance index)” value [2, 4] was 0.61 ± 0.08* 10^−3 pmol insulin × mmol glucose × L^−2 and the “Plasma Glucose” value [2, 4] was 5.61 ± 0.53 mmol/L. For the same molecule, the “Plasma Insulin” value [2, 4] was 0.67 ± 0.07 ng/mL, the “Plasma Total cholesterol” value [2, 4] was 2.01 ± 0.24 mmol/L and the “Plasma Triglyceride” value [2, 4] was 1.29 ± 0.13 mmol/L. The “total cholesterol concentration reduced compared to HFD” value ([2]; plasma, 8-week) was 46% and the Solubility [3] was “Fat soluble”.
